Assays:
SW-620 cells [1] = experiment: Human Colon Carcinoma Growth Delay Assay, SW-620; type: cell-based; details: 72 h, SW-620, 3 days
Description: Human Colon Carcinoma Growth Delay Assay. Human colon carcinoma cells are seeded into 96-well tissue culture plates in a final volume of 180 μL of 10% fetal bovine serum containing growth media and allowed to incubate overnight (37° C., 5% CO2, 95% air). Cells of the SW-620 cell line are seeded at 1.0-1.5×10^4 cells per well. Cells of the HCT-8 and HT-29 cell lines are seeded at 2-4×10^3 cells per well. Serially diluted drug solutions are prepared in growth medium at 10 times concentration; 20 μL of these solutions are added to duplicate wells and incubated with the cells for 3 days in a cell culture incubator. At the end of the incubation period, cells are fixed with 100 μL per well of 10% trichloroacetic acid after removing the drug/culture medium. The plates are washed five times with tap water and stained with 100 μL per well of 0.075% sulfrhodamine B in 1% acetic acid for 10 minutes. The plates are rinsed four times and allowed to air dry. The stain in the wells are solubilized by the addition of 10 mM unbuffered Tris base and the absorbance read using a microtiter plate optical reader. Inhibition of cell growth is calculated from absorbance data of the treated cells compared to untreated control cells.

[2] = biological target: MAP Kinase Pathway (GST-MEK / GST-MAPK); experiment: Cascade Assay for Inhibitors of the MAP Kinase Pathway (APK Assay); type: biochemical; details: 50 μM [γ32P]ATP; compounds assessed at 10 μM
Description: Cascade Assay for Inhibitors of the MAP Kinase Pathway (APK Assay)
Incorporation of ^32 P into myelin basic protein (MBP) is assayed in the presence of a glutathione; S-transferase fusion protein containing p44MAP kinase (GST-MAPK) and a glutathione; S-transferase fusion protein containing p45MEK (GST-MEK). The assay solution contains 20 mM HEPES, pH 7.4, 10 mM magnesium chloride, 1 mM manganese chloride, 1 mM EGTA, 50 μM [γ^32 P]ATP, 10 μg GST-MEK, 0.5 μg GST-MAPK and 40 μg MBP in a final volume of 100 μL. Reactions are stopped after 20 minutes by addition of trichloroacetic acid and filtered through a GF/C filter mat. ^32 P retained on the filter mat is determined using a 1205 betaplate. Compounds are assessed at 10 μM for ability to inhibit incorporation of ^32 P.
To ascertain whether compounds are inhibiting GST-MEK or GST MAPK, two additional protocols are employed. In the first protocol, compounds are added to tubes containing GST-MEK, followed by addition of GST-MAPK, MBP and [γ^32 P]ATP. In the second protocol, compounds are added to tubes containing both GST-MEK and GST-MAPK, followed by MBP and [γ^32 P]ATP.
Compounds that show activity in both protocols are scored as MAPK inhibitors, while compounds showing activity in only the first protocol are scored as MEK inhibitors.

[3] = biological target: T1, FGFr (human FGF-1 (flg) receptor tyrosine kinase) (Homo sapiens, UniProt P11362); experiment: FGFr tyrosine kinase assay, 32P incorporation into glutamate-tyrosine copolymer; type: biochemical
T1 construct: PCR primers are designed to amplify a fragment of DNA that codes for the intracellular tyrosine kinase domain; made in house; host or cells: Sf9 insect cells (baculovirus), cell lysate
T1 sequence (P11362 478-767 limits assumed): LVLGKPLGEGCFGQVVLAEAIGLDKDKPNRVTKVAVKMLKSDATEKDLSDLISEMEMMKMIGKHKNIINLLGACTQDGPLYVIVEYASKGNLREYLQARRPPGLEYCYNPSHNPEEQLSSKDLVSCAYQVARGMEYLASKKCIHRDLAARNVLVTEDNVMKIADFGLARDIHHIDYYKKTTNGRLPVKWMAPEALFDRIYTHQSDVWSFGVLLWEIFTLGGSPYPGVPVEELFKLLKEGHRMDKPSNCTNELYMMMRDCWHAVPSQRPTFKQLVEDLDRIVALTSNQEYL
Description: Platelet Derived Growth Factor Receptor (PDGFr) and Fibroblast Growth Factor Receptor (FGFr). Full length cDNAs for the mouse PDGF-β and human FGF-1 (flg) receptor tyrosine kinases were obtained from J. Escobedo and are prepared as described in J. Biol. Chem., 1991;262:1482-1487. PCR primers are designed to amplify a fragment of DNA that codes for the intracellular tyrosine kinase domain. The fragment is melded into a baculovirus vector, cotransfected with AcMNPV DNA, and the recombinant virus isolated. SF9 insect cells are infected with the virus to overexpress the protein, and the cell lysate is used for the assay.
PDGFr and FGFr. […] Briefly, to each well is added 82.5 μL of incubation buffer containing 25 mM Hepes (pH 7.0), 150 mM NaCl, 0.1% Triton X-100, 0.2 mM PMSF, 0.2 mM sodium vanadate, 10 mM manganese chloride, and 750 μg/mL of poly (4:1) glutamate-tyrosine followed by 2.5 μL of inhibitor and 5 μL of enzyme lysate (7.5 μg/μL FGFR-TK or 6.0 μg/μL PDGFR-TK) to initiate the reaction. Following a 10 minute incubation at 25° C., 10 μL of [γ^32 P]ATP (0.4 μCi plus 50 μM ATP) is added to each well, and samples are incubated for an additional 10 minutes at 25° C. The reaction is terminated by the addition of 100 μL of 30% trichloroacetic acid (TCA) containing 20 mM sodium pyrophosphate and precipitation of material onto glass fiber filter mats (Wallac). […] Nonspecific activity is defined as radioactivity retained on the filters following incubation of samples with buffer alone; (no enzyme). Specific enzymatic activity is defined as total activity (enzyme plus buffer) minus nonspecific activity.

SW-620 cells [4] = experiment: Human Colon Carcinoma Clonogenic Assay, SW-620; type: cell-based; details: SW-620, 2 days with drug, colonies after approximately 2 weeks
Description: Human Colon Carcinoma Clonozenic Assay. Human colon carcinoma cells are seeded into 6 well plates in volumes of 3 mL and allowed to incubate overnight (37° C., 5% CO2, 95% air). SW-620 cells are seeded at 7×10^5 per well; HCT-8 cells are seeded at 5×10^5 per well; HT-29 cells are seeded at 4×10^5 cells per well. Serially diluted drugs are prepared at 200 times the final concentration, and 15 μL are added to each of duplicate wells. Cells are incubated with drug for 2 days, rinsed once with 1 mL of trypsin+EDTA, and then trypsinized with the same trypsin solution. After trituration and centrifugation at 750×g for 3 minutes, the cells are suspended in serum-free growth medium and counted using an electronic particle counter. An agarose mixture appropriate for the cloning of each cell line is made using 10% fetal bovine serum in growth medium (SW-620-0.35% agarose, HCT-8 and HT-29-0.4% agarose). […] One; milliliter of each of these cell suspensions is added to duplicate wells of 6 well plates previously prepared with 10% serum/growth medium/1% agarose plugs. The cells in these plates are incubated for approximately 2 weeks in the incubator and stained with 1 mL per well of 1 mg/mL iodonitrotetrazolium violet stain. The visible colonies are counted with an electronic optical colony counter and the clonogenicity of treated cells calculated in comparison to untreated control cells.

SMILES	IC50 (SW-620 cells [1])	IC50 [2]	IC50 [3]	IC50 (SW-620 cells [4])
CN1CCN(CCCNc2cc3c(cn2)cc(-c2c(Cl)cccc2Cl)c(=O)n3C)CC1 [Example H, 3-(2,6-dichlorophenyl)-1-methyl-7-[3-(4-methylpiperazin-1-yl)propylamino]-1H-[1,6]naphthyridin-2-one]	5.2 µM	10 µM	0.05 µM	–
CCN(CC)CCCCNc1cc2c(cn1)cc(-c1c(Cl)cccc1Cl)c(=O)n2C [Example F, 3-(2,6-dichlorophenyl)-7-[4-(diethylamino)butylamino]-1-methyl-1H-[1,6]naphthyridin-2-one]	7.2 µM	> 10 µM	0.07 µM	> 5 µM
CCN(CC)CCOc1ccc(Nc2cc3c(cn2)cc(-c2c(Cl)cccc2Cl)c(=O)n3C)cc1 [Example P, 3-(2,6-dichlorophenyl)-7-[(4-(2-(diethylamino)ethoxy)phenyl)amino]-1-methyl-1H-[1,6]naphthyridin-2-one]	6.7 µM	–	–	–
CN1CCN(CCOc2ccc(Nc3cc4c(cn3)cc(-c3c(Cl)cccc3Cl)c(=O)n4C)cc2)CC1 [Example S, 3-(2,6-dichlorophenyl)-1-methyl-7-[(4-(2-(4-methylpiperazin-1-yl)ethoxy)phenyl)amino]-1H-[1,6]naphthyridin-2-one]	6.8 µM	–	–	2.8 µM

Reference: patent publication US6150359A, “Naphthyridinones for inhibiting protein tyrosine kinase and cell cycle kinase mediated cellular proliferation” (Warner-Lambert Company, priority 2000, dated 2000)
